Measurements as given in patent US20260263334A1, “COMPOSITIONS CONTAINING NITRATE-RICH FOODS AND EXTRACTS FOR SHIFTING THE ORAL MICROBIOME” (WM. WRIGLEY JR. COMPANY, priority 2023, published 2026).

Assays:
[1] = tested on: Aggregatibacter actinomycetemcomitans (A.a.); test: short-term time-kill against A.a. (viable colony on agar); assay type: cell-based; design: key to viable colony: +: viable colony; −: no viable colony; conditions: for viable colony: stop reagent
Experimental: Fresh grown cells were harvested and adjusted to OD550 nm=0.5, then mixed with CHX (75-1,000 μg/ml). At different time points, an aliquot of cells was removed and mixed with (or without) stop reagent (0.5% Tween 80 and 0.07% Lecithin) to stop the CHX reaction on cells. The treated cells were centrifuged to remove the supernatant that contained CHX, and the cell pellet was spotted on BHI agar (supplemented with 0.001% Hemin, 0.0001% Vitamin K) for cell viability. Fresh grown cells were harvested and mixed with MBE for a short period of time and the viability of treated cells were evaluated. 10% DMSO was used to wash the treated cells and the MBE was removed from the assay system. Immediately after treatment, 10% DMSO was added to the cell mixture. The cell mixture was then centrifuged and washed once more with 10% DMSO. Cells treated with MBE for various times were spotted on an agar plate, […] and noted for viable colony development.

[2] = tested on: Aggregatibacter actinomycetemcomitans (A.a.); test: nitrate reductase (NR) activity of A.a. (Griess test); assay type: cell-based
Experimental: (§1) For evaluation of nitric oxide producing capability of oral bacteria, overnight cultures of test organisms were washed once and transferred into a medium without any nitrate or nitrite compounds. A 0.5% (or 1%) KNO3 was added to the medium, and further incubated anaerobically at 37° C. for 24-48 hours. The concentration of nitrite (due to reduction of nitrate by nitrate reductase) was determined by Griess Test over a desired period of time.
(§2) To examine the effect of natural and chemical antimicrobial agents on NO production, test bacteria were pre-exposed to magnolia bark extract (MBE) (a natural germ-kill compound), peppermint oil, and chlorhexidine (CHX). The activities of nitrate reductase from oral bacteria were assayed by Griess test as described above. No treatment controls were included for each test bacterial species. The production of nitrite was reduced if the test antimicrobial compounds affected the nitrate reductase activity. Dose response curves were prepared.
A. actinomycetemcomitans (A.a.) was grown anaerobically in THB broth supplemented with 1% yeast extract with 0.001% Hemin, and 0.0001% Vitamin K.
The nitrate source KNO3 (0.1% final) was added to respective growth media for individual test bacteria and incubated for 24-48 hours, then 20 μl of the culture broth was withdrawn and tested for nitrite with Griess reagent.
Test bacteria were grown in respective media anaerobically for 48 hours. Cells were centrifuged and re-suspended in buffer or fresh medium for NR activity testing. […]
(§3) Test bacteria cells were incubated with 1% cysteine in growth medium and 0.3% of a nitrate source. Controls contained no cysteine.

[3] = tested on: Veillonella atypica (ATCC 17744) (V.a.); test: nitrate reductase (NR) activity of V.a (Griess test); assay type: cell-based; conditions: for NR activity of CHX treated V.a (OD): Reduced Transport buffer
Experimental: as §1, §2
V. atypica was grown in RCM medium without (NH4)2SO4 (to avoid the NH4 affecting Griess reagent); and without agar (0.05%, to avoid affecting the OD measurement).
The method used was the same as that for A.a., except the V.a cell concentration was adjusted to OD550 nm=0.7 (10^8 CFR/ml) in Reduced Transport buffer. The NR activity was also determined in the same buffer system. […]
as §3

oral microbiota = conditions: mouthwash containing 0.12% of chlorhexidine, cited from earlier work
[4] = chlorhexidine >=10 μg/ml, summary

[H]/N=C(\N/C(=N/[H])NCCCCCCNC(=N)NC(=N)Nc1ccc(Cl)cc1)Nc1ccc(Cl)cc1 [CHX, chlorhexidine]
viable colony ([1]; CHX 75 μg/ml, treatment time 0 min): + | viable colony ([1]; CHX 75 μg/ml, treatment time 5 min): + | viable colony ([1]; CHX 75 μg/ml, treatment time 30 min): + | viable colony ([1]; CHX 75 μg/ml, treatment time 60 min): + | viable colony ([1]; CHX 100 μg/ml, treatment time 0 min): + | viable colony ([1]; CHX 100 μg/ml, treatment time 1 min): + | viable colony ([1]; CHX 100 μg/ml, treatment time 3 min): + | viable colony ([1]; CHX 100 μg/ml, treatment time 5 min): + | viable colony ([1]; CHX 100 μg/ml, treatment time 10 min): + | viable colony ([1]; CHX 100 μg/ml, treatment time 30 min): + | viable colony ([1]; CHX 100 μg/ml, treatment time 60 min): − | viable colony ([1]; CHX 200 μg/ml, treatment time 0 min): + | viable colony ([1]; CHX 200 μg/ml, treatment time 1 min): + | viable colony ([1]; CHX 200 μg/ml, treatment time 2 min): + | viable colony ([1]; CHX 200 μg/ml, treatment time 3 min): + | viable colony ([1]; CHX 200 μg/ml, treatment time 5 min): + | viable colony ([1]; CHX 200 μg/ml, treatment time 10 min): + | viable colony ([1]; CHX 200 μg/ml, treatment time 30 min): − | viable colony ([1]; CHX 200 μg/ml, treatment time 60 min): − | viable colony ([1]; CHX 300 μg/ml, treatment time 0 min): + | viable colony ([1]; CHX 300 μg/ml, treatment time 1 min): + | viable colony ([1]; CHX 300 μg/ml, treatment time 2 min): + | viable colony ([1]; CHX 300 μg/ml, treatment time 3 min): + | viable colony ([1]; CHX 300 μg/ml, treatment time 5 min): + | viable colony ([1]; CHX 300 μg/ml, treatment time 10 min): + | viable colony ([1]; CHX 300 μg/ml, treatment time 30 min): − | viable colony ([1]; CHX 300 μg/ml, treatment time 60 min): − | viable colony ([1]; CHX 500 μg/ml, treatment time 0 min): + | viable colony ([1]; CHX 500 μg/ml, treatment time 1 min): + | viable colony ([1]; CHX 500 μg/ml, treatment time 2 min): + | viable colony ([1]; CHX 500 μg/ml, treatment time 3 min): + | viable colony ([1]; CHX 500 μg/ml, treatment time 5 min): + | viable colony ([1]; CHX 500 μg/ml, treatment time 10 min): − | viable colony ([1]; CHX 500 μg/ml, treatment time 30 min): − | viable colony ([1]; CHX 500 μg/ml, treatment time 60 min): − | viable colony ([1]; CHX 750 μg/ml, treatment time 0 min): + | viable colony ([1]; CHX 750 μg/ml, treatment time 1 min): + | viable colony ([1]; CHX 750 μg/ml, treatment time 2 min): + | viable colony ([1]; CHX 750 μg/ml, treatment time 3 min): + | viable colony ([1]; CHX 750 μg/ml, treatment time 5 min): + | viable colony ([1]; CHX 750 μg/ml, treatment time 10 min): − | viable colony ([1]; CHX 750 μg/ml, treatment time 30 min): − | viable colony ([1]; CHX 750 μg/ml, treatment time 60 min): − | viable colony ([1]; CHX 1000 μg/ml, treatment time 0 min): + | viable colony ([1]; CHX 1000 μg/ml, treatment time 1 min): + | viable colony ([1]; CHX 1000 μg/ml, treatment time 2 min): + | viable colony ([1]; CHX 1000 μg/ml, treatment time 3 min): − | viable colony ([1]; CHX 1000 μg/ml, treatment time 5 min): − | viable colony ([1]; CHX 1000 μg/ml, treatment time 30 min): − | viable colony ([1]; CHX 1000 μg/ml, treatment time 60 min): − | viability of A.a. ([1]; CHX 75-1,000 μg/ml, two-minute treatment, stop reagent added): limited viability | NR activity of CHX treated A.a. ([2]; CHX 100 μg/ml for 10 min): inhibited NR activity | OD at 550 nm for A.a. NR activity test ([2]; CHX 100 μg/ml, 1 min treatment, 2nd trial, 2 hr): 0.212 OD | OD at 550 nm for A.a. NR activity test ([2]; CHX 100 μg/ml, 1 min treatment, 2nd trial, 3 hr): 0.856 OD | OD at 550 nm for A.a. NR activity test ([2]; CHX 100 μg/ml, 1 min treatment, 3rd trial, 2 hr): 0.844 OD | OD at 550 nm for A.a. NR activity test ([2]; CHX 100 μg/ml, 10 min treatment, 1st trial, 2 hr): 0.117 OD | OD at 550 nm for A.a. NR activity test ([2]; CHX 100 μg/ml, 10 min treatment, 1st trial, 3 hr): 0.130 OD | OD at 550 nm for A.a. NR activity test ([2]; CHX 100 μg/ml, 10 min treatment, 2nd trial, 2 hr): 0.284 OD | OD at 550 nm for A.a. NR activity test ([2]; CHX 200 μg/ml, 1 min treatment, 2nd trial, 2 hr): 0.279 OD | OD at 550 nm for A.a. NR activity test ([2]; CHX 200 μg/ml, 1 min treatment, 2nd trial, 3 hr): 0.849 OD | OD at 550 nm for A.a. NR activity test ([2]; CHX 200 μg/ml, 1 min treatment, 3rd trial, 2 hr): 0.852 OD | OD at 550 nm for A.a. NR activity test ([2]; CHX 200 μg/ml, 10 min treatment, 1st trial, 2 hr): 0.125 OD | OD at 550 nm for A.a. NR activity test ([2]; CHX 200 μg/ml, 10 min treatment, 1st trial, 3 hr): 0.127 OD | OD at 550 nm for A.a. NR activity test ([2]; CHX 200 μg/ml, 10 min treatment, 2nd trial, 2 hr): 0.125 OD | OD at 550 nm for A.a. NR activity test ([2]; CHX 300 μg/ml, 1 min treatment, 1st trial, 2 hr): 0.263 OD | OD at 550 nm for A.a. NR activity test ([2]; CHX 300 μg/ml, 1 min treatment, 2nd trial, 2 hr): 0.134 OD | OD at 550 nm for A.a. NR activity test ([2]; CHX 300 μg/ml, 1 min treatment, 2nd trial, 3 hr): 0.260 OD | OD at 550 nm for A.a. NR activity test ([2]; CHX 300 μg/ml, 1 min treatment, 3rd trial, 2 hr): 0.853 OD | OD at 550 nm for A.a. NR activity test ([2]; CHX 300 μg/ml, 10 min treatment, 1st trial, 2 hr): 0.115 OD | OD at 550 nm for A.a. NR activity test ([2]; CHX 300 μg/ml, 10 min treatment, 1st trial, 3 hr): 0.130 OD | OD at 550 nm for A.a. NR activity test ([2]; CHX 300 μg/ml, 10 min treatment, 2nd trial, 2 hr): 0.129 OD | OD at 550 nm for A.a. NR activity test ([2]; CHX 500 μg/ml, 1 min treatment, 1st trial, 2 hr): 0.284 OD | OD at 550 nm for A.a. NR activity test ([2]; CHX 500 μg/ml, 1 min treatment, 2nd trial, 2 hr): 0.107 OD | OD at 550 nm for A.a. NR activity test ([2]; CHX 500 μg/ml, 1 min treatment, 2nd trial, 3 hr): 0.213 OD | OD at 550 nm for A.a. NR activity test ([2]; CHX 500 μg/ml, 1 min treatment, 3rd trial, 2 hr): 0.443 OD | OD at 550 nm for A.a. NR activity test ([2]; CHX 500 μg/ml, 10 min treatment, 1st trial, 2 hr): 0.114 OD | OD at 550 nm for A.a. NR activity test ([2]; CHX 500 μg/ml, 10 min treatment, 1st trial, 3 hr): 0.118 OD | OD at 550 nm for A.a. NR activity test ([2]; CHX 500 μg/ml, 10 min treatment, 2nd trial, 2 hr): 0.131 OD | OD at 550 nm for A.a. NR activity test ([2]; CHX 750 μg/ml, 1 min treatment, 1st trial, 2 hr): 0.148 OD | OD at 550 nm for A.a. NR activity test ([2]; CHX 750 μg/ml, 1 min treatment, 2nd trial, 2 hr): 0.107 OD | OD at 550 nm for A.a. NR activity test ([2]; CHX 750 μg/ml, 1 min treatment, 2nd trial, 3 hr): 0.169 OD | OD at 550 nm for A.a. NR activity test ([2]; CHX 750 μg/ml, 1 min treatment, 3rd trial, 2 hr): 0.391 OD | OD at 550 nm for A.a. NR activity test ([2]; CHX 750 μg/ml, 10 min treatment, 1st trial, 2 hr): 0.118 OD | OD at 550 nm for A.a. NR activity test ([2]; CHX 750 μg/ml, 10 min treatment, 1st trial, 3 hr): 0.141 OD | OD at 550 nm for A.a. NR activity test ([2]; CHX 750 μg/ml, 10 min treatment, 2nd trial, 2 hr): 0.112 OD | NR activity of CHX treated A.a. ([2]; CHX 1,000 μg/ml (0.1%) for 1 min): completely inhibited NR activity | OD at 550 nm for A.a. NR activity test ([2]; CHX 1000 μg/ml, 1 min treatment, 1st trial, 2 hr): 0.160 OD | activities of nitrate reductase [2, 4]: significantly inhibits | NR activity of CHX treated V.a (OD) ([3]; CHX 10 μg/ml, 1 min Treatment): 0.266 OD | NR activity of CHX treated V.a (OD) ([3]; CHX 10 μg/ml, 10 min Treatment): 0.300 OD | NR activity of CHX treated V.a (OD) ([3]; CHX 50 μg/ml, 1 min Treatment): 0.304 OD | NR activity of CHX treated V.a (OD) ([3]; CHX 50 μg/ml, 10 min Treatment): 0.282 OD | NR activity of CHX treated V.a (OD) ([3]; CHX 100 μg/ml, 1 min Treatment): 0.255 OD | NR activity of CHX treated V.a (OD) ([3]; CHX 100 μg/ml, 10 min Treatment): 0.280 OD | NR activity of CHX treated V.a (OD) ([3]; CHX 250 μg/ml, 1 min Treatment): 0.190 OD | NR activity of CHX treated V.a (OD) ([3]; CHX 250 μg/ml, 10 min Treatment): 0.161 OD | NR activity of CHX treated V.a (OD) ([3]; CHX 500 μg/ml, 1 min Treatment): 0.170 OD | NR activity of CHX treated V.a (OD) ([3]; CHX 500 μg/ml, 10 min Treatment): 0.162 OD | activities of nitrate reductase [3, 4]: significantly inhibits | VSC-producing bacteria and enteric nitric oxide producing bacteria (oral microbiota): reduced | oral and plasma nitrite levels (oral microbiota; healthy human volunteers): reduced | systolic and diastolic blood pressure (oral microbiota; healthy human volunteers): sustained increase
